Test results: PubChem BioAssay AID248 (DTP/NCI, 2004)
Where “and” joins values, the source holds several entries; their conditions need not be identical. Equal entries are not always repeated. Inconclusive results and toxic doses are left out. Cut-off read from the data, not from the text of the source: active = T/C of 150% or more; inactive = T/C below 125%.

Tested on: L1210 leukemia ip in BDF1 mice, survival T/C
Assay: NCI In Vivo Anticancer Drug Screen. Data for tumor model L1210 Leukemia (intraperitoneal) in B6D2F1 (BDF1) mice
Conditions: endpoint: mean survival time, higher = longer survival
Method in brief: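 Antitumor effect is assessed in tumor-bearing animals. Survival in the compound arm is compared with a vehicle-dosed control arm and expressed as their quotient.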

[1] = dose: 100.0 mg/kg/injection, schedule: Q01DX009 (ip), vehicle: Klucel (hydroxypropylcellulose) (HPC)
[2] = dose: 200.0 mg/kg/injection, schedule: Q01DX009 (ip), vehicle: Klucel (hydroxypropylcellulose) (HPC)
[3] = dose: 400.0 mg/kg/injection, schedule: Q01DX009 (ip), vehicle: Klucel (hydroxypropylcellulose) (HPC)
[4] = dose: 100.0 mg/kg/injection, schedule: Q01DX009 (ip), vehicle: saline with Tween-80
[5] = dose: 200.0 mg/kg/injection, schedule: Q01DX009 (ip), vehicle: saline with Tween-80
[6] = dose: 100.0 mg/kg/injection, schedule: Q01DX001 (ip), vehicle: saline
[7] = dose: 100.0 mg/kg/injection, schedule: Q04DX003 (ip), vehicle: Klucel (hydroxypropylcellulose) (HPC)
[8] = dose: 200.0 mg/kg/injection, schedule: Q04DX003 (ip), vehicle: Klucel (hydroxypropylcellulose) (HPC)
[9] = dose: 400.0 mg/kg/injection, schedule: Q04DX003 (ip), vehicle: Klucel (hydroxypropylcellulose) (HPC)

Measured: T/C

O=S1(=O)C=C(Cl)C2C3CC(C(Cl)C3Cl)C21 (stereo not drawn)
inactive: dose: 5.0 mg/kg/injection, schedule: Q01DX009 (ip), vehicle: carboxymethylcellulose (CMC) 94 % of control | dose: 10.0 mg/kg/injection, schedule: Q01DX001 (ip), vehicle: carboxymethylcellulose (CMC) 94 % of control | dose: 10.0 mg/kg/injection, schedule: Q01DX009 (ip), vehicle: carboxymethylcellulose (CMC) 94 % of control | dose: 10.0 mg/kg/injection, schedule: Q04DX003 (ip), vehicle: carboxymethylcellulose (CMC) 92 % of control | dose: 20.0 mg/kg/injection, schedule: Q01DX001 (ip), vehicle: carboxymethylcellulose (CMC) 100 % of control | dose: 20.0 mg/kg/injection, schedule: Q01DX009 (ip), vehicle: carboxymethylcellulose (CMC) 91 % of control | dose: 20.0 mg/kg/injection, schedule: Q04DX003 (ip), vehicle: carboxymethylcellulose (CMC) 94 % of control | dose: 40.0 mg/kg/injection, schedule: Q01DX001 (ip), vehicle: carboxymethylcellulose (CMC) 103 % of control | dose: 40.0 mg/kg/injection, schedule: Q04DX003 (ip), vehicle: carboxymethylcellulose (CMC) 94 % of control

CC1C[N-]CC(C)C1.CC1C[N-]CC(C)C1.CC1C[N-]CC(C)C1.CC1C[N-]CC(C)C1.[Cl][Rh][Cl] (stereo not drawn)
inactive: dose: 1.5 mg/kg/injection, schedule: Q01DX009 (ip), vehicle: gum acacia 98 % of control | dose: 3.0 mg/kg/injection, schedule: Q01DX009 (ip), vehicle: gum acacia 96 % of control | dose: 6.0 mg/kg/injection, schedule: Q01DX009 (ip), vehicle: gum acacia 100 % of control | dose: 12.5 mg/kg/injection, schedule: Q04DX003 (ip), vehicle: gum acacia 100 % of control | dose: 25.0 mg/kg/injection, schedule: Q04DX003 (ip), vehicle: gum acacia 93 % of control

Cc1cccc(Cl)c1NC(=S)NCc1ccco1
inactive: [1] 98 % of control | [2] 98 % of control | [3] 102 % of control

C/C(=C\c1ccc([N+](=O)[O-])cc1)C(=O)Nc1ccc(S(=O)(=O)F)cc1
inactive: [4] 95 % of control | [5] 93 % of control | dose: 400.0 mg/kg/injection, schedule: Q01DX009 (ip), vehicle: saline with Tween-80 98 % of control

CC[N+](CC)(CC)CCCCCC[N+](CC)(CC)CC
inactive: dose: 3.15 mg/kg/injection, schedule: Q01DX009 (ip), vehicle: water 113 % of control | dose: 6.25 mg/kg/injection, schedule: Q01DX009 (ip), vehicle: water 103 % of control | dose: 6.25 mg/kg/injection, schedule: Q04DX003 (ip), vehicle: saline 103 % of control | dose: 12.5 mg/kg/injection, schedule: Q01DX009 (ip), vehicle: water 100 % of control and 103 % of control | dose: 12.5 mg/kg/injection, schedule: Q04DX003 (ip), vehicle: saline 104 % of control

Cc1cc(=O)c(O)c(N(C)C)o1
inactive: dose: 100.0 mg/kg/injection, schedule: Q04DX002 (ip), vehicle: saline with Tween-80 102 % of control | dose: 200.0 mg/kg/injection, schedule: Q04DX002 (ip), vehicle: saline with Tween-80 102 % of control | dose: 400.0 mg/kg/injection, schedule: Q04DX002 (ip), vehicle: saline with Tween-80 115 % of control

O=CNc1cc2c3c(c1)CCCN3CCC2
inactive: dose: 12.5 mg/kg/injection, schedule: Q01DX001 (ip), vehicle: saline 102 % of control | dose: 25.0 mg/kg/injection, schedule: Q01DX001 (ip), vehicle: saline 108 % of control | dose: 25.0 mg/kg/injection, schedule: Q01DX009 (ip), vehicle: saline 105 % of control | dose: 50.0 mg/kg/injection, schedule: Q01DX001 (ip), vehicle: saline 107 % of control | dose: 50.0 mg/kg/injection, schedule: Q01DX009 (ip), vehicle: saline 106 % of control | [6] 100 % of control

COc1ccc(OC)c(CC(C)O)c1 (stereo not drawn)
inactive: dose: 100.0 mg/kg/injection, schedule: Q01DX001 (ip), vehicle: carboxymethylcellulose (CMC) 101 % of control | dose: 200.0 mg/kg/injection, schedule: Q01DX001 (ip), vehicle: carboxymethylcellulose (CMC) 101 % of control | dose: 400.0 mg/kg/injection, schedule: Q01DX001 (ip), vehicle: carboxymethylcellulose (CMC) 98 % of control

O=C(Nc1cccc(F)c1)Oc1ccc(OCc2ccccc2)cc1
inactive: dose: 100.0 mg/kg/injection, schedule: Q04DX002 (ip), vehicle: saline 101 % of control | dose: 200.0 mg/kg/injection, schedule: Q04DX002 (ip), vehicle: saline 90 % of control | dose: 400.0 mg/kg/injection, schedule: Q04DX002 (ip), vehicle: saline 90 % of control

O=C(COc1cc(Cl)c(Cl)cc1Cl)Nc1ccccc1Br
inactive: dose: 100.0 mg/kg/injection, schedule: Q04DX002 (ip), vehicle: Klucel (hydroxypropylcellulose) (HPC) 95 % of control | dose: 200.0 mg/kg/injection, schedule: Q04DX002 (ip), vehicle: Klucel (hydroxypropylcellulose) (HPC) 98 % of control | dose: 400.0 mg/kg/injection, schedule: Q04DX002 (ip), vehicle: Klucel (hydroxypropylcellulose) (HPC) 106 % of control

O=C(O)Cc1ccccc1Cl
inactive: dose: 100.0 mg/kg/injection, schedule: Q01DX009 (ip), vehicle: gum acacia 100 % of control | dose: 200.0 mg/kg/injection, schedule: Q01DX009 (ip), vehicle: gum acacia 96 % of control

O=C1c2ccccc2C(O)N1c1ccccc1 (stereo not drawn)
inactive: [6] 86 % of control | dose: 400.0 mg/kg/injection, schedule: Q01DX001 (ip), vehicle: saline 104 % of control

COc1cccc(CO)c1-c1c(CO)cccc1OC
inactive: dose: 100.0 mg/kg/injection, schedule: Q04DX003 (ip), vehicle: saline 95 % of control | dose: 200.0 mg/kg/injection, schedule: Q04DX003 (ip), vehicle: saline 97 % of control | dose: 400.0 mg/kg/injection, schedule: Q04DX003 (ip), vehicle: saline 97 % of control

COc1ccc(NC(=O)Nc2ccc(F)cc2)c(OC)c1
inactive: [1] 91 % of control | [7] 100 % of control | [2] 100 % of control | [8] 91 % of control | [3] 96 % of control | [9] 100 % of control

O=C(Cc1ccc(-c2ccccc2)cc1)c1ccccc1
inactive: dose: 100.0 mg/kg/injection, schedule: Q01DX001 (ip), vehicle: saline with Tween-80 94 % of control | dose: 200.0 mg/kg/injection, schedule: Q01DX001 (ip), vehicle: saline with Tween-80 93 % of control | dose: 400.0 mg/kg/injection, schedule: Q01DX001 (ip), vehicle: saline with Tween-80 91 % of control

COc1ccccc1C(=O)C(O)c1ccccc1OC (stereo not drawn)
inactive: dose: 50.0 mg/kg/injection, schedule: Q01DX009 (ip), vehicle: Klucel (hydroxypropylcellulose) (HPC) 105 % of control | [1] 101 % of control | [7] 94 % of control | [2] 96 % of control | [8] 96 % of control | [3] 101 % of control | [9] 93 % of control

Cc1ccc(-n2c(=O)c(N=Nc3ccc(Cl)cc3)c(O)n(-c3ccccc3Cl)c2=S)cc1
inactive: dose: 25.0 mg/kg/injection, schedule: Q01DX001 (ip), vehicle: Klucel (hydroxypropylcellulose) (HPC) 97 % of control | dose: 50.0 mg/kg/injection, schedule: Q01DX001 (ip), vehicle: Klucel (hydroxypropylcellulose) (HPC) 101 % of control | dose: 100.0 mg/kg/injection, schedule: Q01DX001 (ip), vehicle: Klucel (hydroxypropylcellulose) (HPC) 92 % of control

CCC(=O)Nc1ccc(Cl)c(Cl)c1
inactive: dose: 100.0 mg/kg/injection, schedule: Q04DX003 (ip), vehicle: saline with Tween-80 95 % of control | dose: 200.0 mg/kg/injection, schedule: Q04DX003 (ip), vehicle: saline with Tween-80 93 % of control | dose: 400.0 mg/kg/injection, schedule: Q04DX003 (ip), vehicle: saline with Tween-80 92 % of control

O=C(O)c1ccc(CCCCCCl)cc1
inactive: [4] 103 % of control | [5] 111 % of control

C(=N\N(c1ccccc1)c1ccccc1)/c1ccc(/C=N/N(c2ccccc2)c2ccccc2)cc1
inactive: [1] 92 % of control | [2] 90 % of control | [3] 96 % of control

O=C(O)CCCCSCCSCCCCC(=O)O
inactive: [1] 101 % of control | [2] 94 % of control | [3] 86 % of control

CCCC(NC(=O)C(C)N)C(=O)O (stereo not drawn)
inactive: dose: 12.5 mg/kg/injection, schedule: Q04DX002 (ip), vehicle: saline 105 % of control | dose: 25.0 mg/kg/injection, schedule: Q04DX002 (ip), vehicle: saline 102 % of control | dose: 50.0 mg/kg/injection, schedule: Q04DX002 (ip), vehicle: saline 102 % of control

C(CC1CCNCC1)CC1CCNCC1
inactive: dose: 10.0 mg/kg/injection, schedule: Q01DX Z (ip), vehicle: saline 96 % of control | dose: 30.0 mg/kg/injection, schedule: Q01DX Z (ip), vehicle: saline 96 % of control

CNc1nc(Cl)nc2ccccc12
inactive: dose: 50.0 mg/kg/injection, schedule: Q01DX009 (ip), vehicle: saline with Tween-80 105 % of control | [4] 112 % of control | [5] 102 % of control
